In patent US9394328B2, “Crystalline dapagliflozin hydrate” (SANDOZ AG, priority 2011, dated 2016):

Experimental: The measurements were carried out with a Bruker D8 Advance powder X-ray diffractometer using Cu Kα radiation in the Bragg-Brentano reflection geometry. Generally, the 2θ values are accurate within an error of ±0.1-0.2°. The relative peak intensities can vary considerably for different samples of the same crystalline form because of different preferred orientations of the crystals. The samples were prepared without any special treatment other than the application of slight pressure to get a flat surface. Silicon single crystal sample holders of either 0.5 mm or 0.1 mm depth and 12 mm cavity diameter were used. The tube voltage and current were 40 kV and 40 mA, respectively. The X-ray diffractometer is equipped with a LynxEye detector. A variable divergence slight was used with a 3° window. The step size was 0.02° 20 with a step time of 37 seconds. The samples were rotated at 0.5 rps during the measurement.
Thermogravimetry coupled with Fourier Transform Infrared Spectroscopy (TG-FTIR): TG-FTIR was performed on a Netzsch Thermo-Microbalance TG 209, which is coupled to a Bruker FT-IR Spectrometer Vector 22. The measurements were carried out with aluminum crucibles with a micro pinhole under a nitrogen atmosphere and at a heating rate of 10° C./min over the range 25-250° C.
145 mg of crystalline hydrate form A according to example 4 is stored under a relative humidity of 60% (in an open container) for two weeks. Then the stored sample is investigated by PXRD and TG-FTIR.

TG-FTIR mass loss attributable to loss of water (after storage at relative humidity of 60% for two weeks): about 9% | Water content in equilibrium with a water activity of about 0.6 (concluded from TG-FTIR mass loss): about 2 mol water per mol dapagliflozin | Crystalline form after storage (PXRD) (stored under a relative humidity of 60% (open container) for two weeks): form A is retained
SMILES: CCOc1ccc(Cc2cc([C@@H]3O[C@H](CO)[C@@H](O)[C@H](O)[C@H]3O)ccc2Cl)cc1 [form A, dapagliflozin]
